PMC12580772, “A First-in-Human Study of ATM Inhibitor Lartesertib as Monotherapy in Patients with Advanced Solid Tumors” (Clinical Cancer Research, 2025)
Entries after “also recorded” stand apart in the source; their conditions may differ.

Key:
[1] = PK analysis of lartesertib in plasma (non-compartmental); format: in vivo, human
Experimental: The PK of lartesertib was characterized during dose escalation using an intensive PK sample collection schedule. Blood samples were collected at multiple timepoints during Cycle 1, including on Day 1 (pre-dose at 0 hours and post-dose at 0.5, 1, 2, 3, 4, 6, 8, and 12 hours) and Day 8 (pre-dose at 0 hours and post-dose at 1, 2, 3, 4, 6, 8, and 12 hours). PK parameters were calculated from individual plasma concentration–time data using non-compartmental methods.

advanced solid tumors = test: Efficacy: tumor response and PFS by RECIST version 1.1; format: in vivo, human
Excerpt: The primary endpoints were the occurrence of DLTs, adverse events (AE), and treatment-related and treatment-emergent AEs (TEAE), along with the occurrence of clinically significant changes in vital signs, laboratory parameters, and 12-lead electrocardiogram findings. The secondary endpoints included PK parameters of lartesertib in plasma after single and multiple doses; establishment of the recommended dose for expansion based on safety, PK, and PD data; absolute and relative changes overtime from baseline in ATM pathway readouts assessed by flow cytometry and immunohistochemistry; and objective response, duration of response, and progression-free survival (PFS) according to the RECIST version 1.1, as assessed by the investigator. Exploratory endpoints included the correlation of baseline and on-treatment biomarkers with response to lartesertib treatment as well as relative changes in total blood cell count, immune cells, and circulatory factors during exposure to lartesertib.
For the efficacy analysis, the proportion of patients with objective response, defined as radiologic complete response (CR) + partial response, was tabulated, and the 95% confidence interval (CI) was estimated using the Clopper–Pearson method. PFS was estimated using the Kaplan–Meier method. The median PFS time and rate estimates at 3, 6, and 12 months, as well as every 6 months thereafter, were also summarized.

[2] = tested on: cancer cell lines (head and neck, colon, lung, gastric, breast, and melanoma); design: method as in PMID 35405736; conditions: in vitro; cited from earlier work
[3] = tested on: MiaPaCa2 pancreatic cancer model; design: method as in PMID 37079339; conditions: combination with the ATR inhibitor gartisertib; cited from earlier work
[4] = tested on: patients with advanced solid tumors; design: method as in PMID 38407317; conditions: combination of lartesertib and tuvusertib; cited from earlier work

COc1cc2ncc3c(c2cc1-c1cn(C)nc1C)n(-c1c(F)cncc1OC)c(=O)n3C [lartesertib]
Exposure versus dose ([1]; 100-400 mg once daily): increased in a dose-related manner; also recorded: increased in a dose-dependent manner | half-life ([1]; human, plasma, oral, across 100-400 mg once daily, Day 1 and Day 8, read-out: Geometric mean elimination half-life (t1/2)): 300 to 420 min | Tmax ([1]; human, plasma, oral, across 100-400 mg once daily, Day 1 and Day 8, read-out: Median time to reach maximum observed plasma concentration (tmax)): 1 to 2 h | Best overall response: Non-complete response/non-progressive disease (advanced solid tumors; 100 mg n = 2): 1 (50.0) n (%) | Best overall response: Not evaluable (advanced solid tumors; 100 mg n = 2): 1 (50.0) n (%) | Best overall response: Progressive disease (advanced solid tumors; 100 mg n = 2): 0 (0.0) n (%) | Best overall response: Stable disease (advanced solid tumors; 100 mg n = 2): 0 (0.0) n (%) | Progressive disease/Deaths (PFS events) (advanced solid tumors; 100 mg n = 2): 0 (0.0) n (%) | PFS, median (min, max) (advanced solid tumors; 100 mg n = 2, NC, noncalculable): NC (1.2,4.0) | Best overall response: Non-complete response/non-progressive disease (advanced solid tumors; 200 mg n = 7): 0 (0.0) n (%) | Best overall response: Not evaluable (advanced solid tumors; 200 mg n = 7): 2 (28.6) n (%) | Best overall response: Progressive disease (advanced solid tumors; 200 mg n = 7): 5 (71.4) n (%) | Best overall response: Stable disease (advanced solid tumors; 200 mg n = 7): 0 (0.0) n (%) | PFS, median (min, max) (advanced solid tumors; 200 mg n = 7): 1.1 (0.0, 1.6) months | Progressive disease/Deaths (PFS events) (advanced solid tumors; 200 mg n = 7): 6 (85.7) n (%) | Best overall response: Non-complete response/non-progressive disease (advanced solid tumors; 300 mg n = 9): 0 (0.0) n (%) | Best overall response: Not evaluable (advanced solid tumors; 300 mg n = 9): 2 (22.2) n (%) | Best overall response: Progressive disease (advanced solid tumors; 300 mg n = 9): 6 (66.7) n (%) | Best overall response: Stable disease (advanced solid tumors; 300 mg n = 9): 1 (11.1) n (%) | PFS, median (min, max) (advanced solid tumors; 300 mg n = 9): 1.3 (0.0, 4.1) months | Progressive disease/Deaths (PFS events) (advanced solid tumors; 300 mg n = 9): 7 (77.8) n (%) | Best overall response: Non-complete response/non-progressive disease (advanced solid tumors; 400 mg n = 4): 0 (0.0) n (%) | Best overall response: Not evaluable (advanced solid tumors; 400 mg n = 4): 2 (50.0) n (%) | Best overall response: Progressive disease (advanced solid tumors; 400 mg n = 4): 1 (25.0) n (%) | Progressive disease/Deaths (PFS events) (advanced solid tumors; 400 mg n = 4): 1 (25.0) n (%) | PFS, median (min, max) (advanced solid tumors; 400 mg n = 4, NC, noncalculable): NC (0.0, 2.8) | Best overall response: Non-complete response/non-progressive disease (advanced solid tumors; Total N = 22): 1 (4.5) n (%) | Best overall response: Not evaluable (advanced solid tumors; Total N = 22): 7 (31.8) n (%) | Best overall response: Progressive disease (advanced solid tumors; Total N = 22): 12 (54.5) n (%) | Best overall response: Stable disease (advanced solid tumors; Total N = 22): 2 (9.1) n (%) | PFS, median (min, max) (advanced solid tumors; Total N = 22): 1.3 (0.0, 4.1) months | Progressive disease/Deaths (PFS events) (advanced solid tumors; Total N = 22): 14 (63.6) n (%) | Median PFS (advanced solid tumors; all patients, Kaplan–Meier): 1.3 (95% CI, 0.99–1.58) months | Best overall response stable disease (advanced solid tumors; of 22 patients): 9.1% | Progressive disease (advanced solid tumors; of 22 patients): 54.5% | Non-CR/non–progressive disease (advanced solid tumors; of 22 patients, prostate gland cancer): 4.5% | Duration of stable disease (advanced solid tumors; patient with nasopharyngeal cancer): 120 days | Radiotherapy sensitivity of cancer cell lines [2]: enhances the radiotherapy sensitivity | Tumor growth [3]: complete tumor growth inhibition | Patients experiencing SD for >16 weeks [4]: six of 42
